From patent US20230255946A1 (Pure Tech LYT 100, Inc., priority 2020, published 2023)
“Also recorded” adds a separate entry of the source.

Experiments:
[1] = human, in vivo
Experimental: All Part 1 cohorts will be dosed every 12 hours with food for 5 days.
During the treatment period (Day 1 through Day 5), participants will be administered their assigned study medication BID, every 12 h ± 0.25 h (with approximately 240 mL of non-carbonated water), 30 minutes after the start of consumption of their standardised breakfast or dinner (12 h apart). A standardised lunch will be served ≥ 4 h post breakfast and ≥ 4 h prior to dinner. An evening snack will be served ≥ 3 h following evening study medication administration. No additional fluids will be allowed during the 1 h pre- and post-doses. On Day 6, subjects will replicate mealtimes as scheduled on Day 1-5.
In Part 1, blood samples (4 mL each) for PK will be collected for Cohorts 1, 2, 3, 4, and 6 at specified times (hours) at each as follows: • Day 1 and Day 5: 0 (pre-dose), 0.5, 1, 1.5, 2, 2.5, 3, 3.5, 4, 6, 8, 12 (pre-dose), 13, 14, 15, 16, 18 h • Day 2, Day 3 and Day 4: 0 (pre-morning-dose) and 12 h (pre-evening-dose) • Day 6: 12, 18, 24 and 36 h post-last dose • Day 7: 48 h (post-last dose)
Pharmacokinetics for Day 1 to 3 in Part 2 (fed state) will be compared to PK for Day 1 to Day 3 in Part 2 (fasted state). Plasma PK parameters (non-compartmental or compartmental analysis as appropriate) will include, but are not limited to: • Following single dose: Tmax, tlag, Cmax, AUC0-4, AUC0-last, t½, AUC0-inf, lambda z, %AUCext, CL/F, Vz/F, Cmax/D, AUC0-last/D, AUC0-inf/D and MRT (D is dose) • After repeated doses: Ctrough, Ctrough/D • Following repeated doses on last day: Tmax, Cmax, Cavg, tlag, t½, AUC0-4, AUC0-last, AUC0-inf, lambda z, %AUCext, CLss/F, Vzss/F, MRT, PTF, Rac(AUC), Rac(Cmax), Cmax/D, AUClast/D, AUC0-inf/D and Rac (accumulation ratio)
All cohorts (n=6 each) were dosed every 12 hours with food for 5 days at either 100, 250, 500, or 750 mg BID. […] Following processing, the samples were analyzed by HPLC on a Phenomenex Luna PFP(2), 3 µm, 50 x 2.0 mm column, and the eluates were monitored by an API4000 MS/MS detector in positive MRM mode. The data were acquired and processed by the data acquisition system Analyst® (Sciex).

[2] = 200 mg SD-559 (pirfenidone) BID, Huang et al.; in ng/mL; cited from earlier work
[3] = Food Effect Study Part 2 (Cohort 5), single 500 mg dose fed vs fasted; assay type: in vivo
Experimental: The comparison will be based on Day 1, Day 2 and Day 3 PK plasma samples after the first dose of study drug on Day 1 under fast and fed conditions of Part 2.
Subjects will be admitted to the CRU on Day -1 and will fast overnight for at least 10 h.
Comparison of the PK parameters in the fed and fasted states will be performed, and analysis of PK by gender may be performed if the data allow.

[4] = male, Sprague Dawley, rat, in vivo, 28 days
Experimental: The protocol was amended to add additional TK male animals in Group 6 for Day 1 collection of TK samples at 875 mg/kg.
Blood samples were collected from 3 subsets of 3 animals/sex on Day 1 and Day 28 at predose, 0.25, 0.5, 1, 2, 4, 8 and 24 hours (hr) post-dose for groups 2 to 6 and from one subset of 3 animals/sex at 0.25 hr post-dose for the vehicle group (group 1). […] Non-compartmental analysis (NCA) of plasma concentration data was conducted using Phoenix® WinNonlin®, version 8.0.

L929 cells [5] = assay: TGF-induced soluble fibronectin synthesis in L929 cells (ELISA); assay type: cell-based; conditions: 500 µM, in the absence and presence of TGF-β-induction
Text: Fibronectin is another important component of fibrotic lungs as it is induced by TGF-β and functions both as a structural component of extra cellular matrix as well as well as a ligand for integrin receptors. Just like soluble collagen, binding of fibronectin to integrin receptors induces the proliferation of fibroblast and epithelial cells of the lungs.

[6] = system: mouse tail model of lymphedema; assay: Mouse tail model of lymphedema; assay type: in vivo; conditions: 400 mg/kg/day oral gavage once daily, by 5 weeks
L929 cells [7] = assay: TGF-induced collagen synthesis in L929 cells, 96-well plate format (SIRCOL); assay type: cell-based; conditions: 500 µM
Experimental: Five thousand L929 cells were plated in complete DMEN and incubated until confluency for 3 days. Medium was removed and complete DMEM containg Prolin (20 µg/ml) and ascorbic acid (10 µM) was added. […] Cells were further incubated for 72 hrs. Supernatant was removed, 0.5% gluteraldehyde was added for 30 min at RT, removed, washed 3X with ddwater, 0.5 M acetic acid was added for 30 min at RT, removed, washed with water, air dried and 100 µl SIRCOL dye was added for 5 h at RT. Dye was removed, plate was washed extensively under running water, air dried and 200 µl of 0.5 M NaOH was added, plates were shaken at RT for 1 h, and OD was determined at 600 nm.

[8] = human, in vivo, 48 h
Text: Following screening, eligible healthy volunteer subjects were admitted to a single clinical study site and were randomized to 1 of 2 treatment sequences. […] In each period, a standardized breakfast was provided to subjects prior to administration of study drug (to compare the PK profiles in the clinically relevant fed state) and plasma samples were collected over a 48-hour period after dosing for evaluation of PK. Dosing between the 2 periods was separated by a minimum of 7 days. Subjects completed the study upon completion of the 48-hour post-dose assessments following dosing period 2.
All capsules were identical in size, shape, and external color.

NASH mice = assay: NASH mouse model (streptozotocin and high fat diet), liver histology; assay type: in vivo
Text: Non-alcoholic steatohepatitis (NASH) is characterized by lobular inflammation, hepatocyte ballooning and degeneration progressing to liver fibrosis. […] In addition, nine non-NASH mice were fed with a normal diet and monitored.

[9] = MAD study, safety and tolerability (adverse events)
Text: All participants in Part 1 and Part 2 will be monitored for safety (including assessment of chemistry, haematology and urinalysis parameters, electrocardiograms [ECGs], vital signs and adverse events [AEs]) and samples will be collected for assessment of PK at predefined time points pre and post-dose as delineated in the Schedule of Events.
Safety and tolerability will be assessed throughout Part 1, Part 2 and Part 3 of the study by monitoring AEs, physical examination, vital signs, 12-lead ECGs, clinical laboratory values (haematology panel, multiphasic chemistry panel and urinalysis), and review of concomitant treatments/medication use.

L929 cells [10] = assay: Survival of L929 cells (MTT); assay type: cell-based; conditions: 500 µM, 72 hrs
Experimental: Five thousand L929 cells were plated in completed DMEN and incubated until confluency for 3 days. Medium was removed and complete DMEM containg Prolin (20 µg/ml) and ascorbic acid (10 uM) was added. […] 100 µL of medium was removed, 20 µL MTT solution was added for 4 hrs, then 100 µl of DMSO was added, and absorbance of developed dark pink color was determined at […].

L929 cells [11] = assay: TGF-induced collagen synthesis in L929 cells, 6-wells (SIRCOL); assay type: cell-based; conditions: 500 µM
Experimental: 100,000 L929 cells were plated in complete DMEN and incubated until confluency for 3 days. Medium was removed and complete DMEM containg Prolin (20 µg/ml) and ascorbic acid (10 µM) was added. […] Cells were further incubated for 72 hrs. Supernatant was removed, cells were washed with cold PBS, 1 ml SIRCOL reagent was added onto the cells and cells were scraped off, samples were shaken for 5 h.at RT, centrifuged at 10.000 rpm for 5 min, supernatant was removed, pellet was dissolved in 0.5 M acetic acid to remove unbound dye, and re-centrifuged at 10.000 rpm for 5 min, supernatant was removed and final pelet was dissolved in 1 ml 0.5 M NaOH, shaken at RT for 5 h, 100 µl of resulted solution was placed in 96-well and O.D was determined at 600.

L929 cells [12] = assay: TGF-induced soluble collagen synthesis in L929 cells (ELISA); assay type: cell-based; conditions: 500 µM
Experimental: Five thousand L929 cells were plated in complete DMEN and incubated until confluency for 3 days. Medium was removed and complete DMEM containing Prolin (20 µg/ml) and ascorbic acid (10 µM) was added. […] Cells were further incubated for 72 hrs. 200 µl supernatant of 96-well SIRCOL plate was placed onto ELISA plate and incubated O/N. Next day, supernatant was removed and 100 ul of 1%BSA in PBST was added and incubated for 2 h at RT, BSA was removed, plate was washed 3x with 200 µl of PBST, and anti-collagen type I a.b was added at 1:2000 dilution (prepared in %1 BSA in PBST), incubated at RT for 1 h, primary a.b was removed, plate was washed 3x with 200 µl PBST, and secondary anti-goat HRP was added at 1:2000 dilution, incubate at RT for 1 h, removed, plate was washed 3x with 200 µl PBST and 100 µl of TMB solution was added for color development for 15 min, then 100 µl of 2 N H2SO4 was added to stop the reaction and O.D of developed yellow color was determined at 450 nm.

Compound: O=C(O)c1ccc(=O)n(-c2ccccc2)c1 [LYT-105, 5-carboxy-pirfenidone]
- average ratio of metabolite to the parent (M/P) by AUC [1]: 0.45
- dose dependence of AUC96-108 [1]: linear dose proportionality
- observed Cmax [2]: 1476
- change in Cmax, AUC, fed vs fasted ([3]; 5-carboxypirfenidone after LYT-100 500 mg): < 5%
- exposure in rats relative to humans [4]: ~7 fold

Compound: [2H]C([2H])([2H])c1ccc(=O)n(-c2ccccc2)c1 [LYT-100, deupirfenidone]
- soluble fibronectin levels (L929 cells [5]): signficantly reduced
- swelling (tail volume) as compared to carboxymethylcellulose control [6]: significantly reduced swelling
- total collagen level in the absence of TGF-β induction (L929 cells [7]): signficantly inhibited or reduced
- TGF-β-induced total collagen levels (L929 cells [7]; TGF-β 5 ng/ml, 72 hrs): significanly inhibited or reduced
- tolerability of single doses [8]: well tolerated
- Fibrosis Area (%) (NASH mice; 30 mg/kg twice daily oral, 6-9 weeks of age, n=8, mean ± SD, p<0.01 vs Vehicle): 0.64 ± 0.31 %
- fibrosis area compared to the vehicle group (NASH mice; Sirius-red stained liver sections): significant reduction
- number of animals with Steatosis score 0 (NASH mice; score 0 = <5%, n=8): 4
- number of animals with Steatosis score 1 (NASH mice; score 1 = 5-33%, n=8): 3
- number of animals with Lobular Inflammation score 1 (NASH mice; score 1 = <2 foci/200x, n=8): 5
- number of animals with Lobular Inflammation score 2 (NASH mice; score 2 = 2-4 foci/200x, n=8): 3
- number of animals with Steatosis score 2 (NASH mice; score 2 = >33%-66%, n=8): 1
- number of animals with Hepatocyte ballooning score 2 (NASH mice; score 2 = Many cells/prominent ballooning, n=8): 8
- abdominal discomfort, AE across all cohorts [9]: 6.7%
- abdominal distension, AE across all cohorts [9]: 10%
- headache, AE across all cohorts [9]: 23.3%
- nausea, AE across all cohorts [9]: 10%
- Abdominal Distension, incidence of TEAE ([9]; 100 mg BID, N=6): 0 n (%)
- Abdominal discomfort, incidence of TEAE ([9]; 100 mg BID, N=6): 0 n (%)
- Back pain, incidence of TEAE ([9]; 100 mg BID, N=6): 1 (16.7%) n (%)
- Dysmenorrhoea, incidence of TEAE ([9]; 100 mg BID, N=6): 0 n (%)
- Headache, incidence of TEAE ([9]; 100 mg BID, N=6): 1 (16.7%) n (%)
- Nausea, incidence of TEAE ([9]; 100 mg BID, N=6): 0 n (%)
- Peripheral swelling, incidence of TEAE ([9]; 100 mg BID, N=6): 0 n (%)
- Presyncope, incidence of TEAE ([9]; 100 mg BID, N=6): 0 n (%)
- tolerability ([9]; 100 mg up through 1000 mg BID over 5 days): well-tolerated
- Abdominal Distension, incidence of TEAE ([9]; 250 mg BID, N=6): 3 (50.0%) n (%)
- Abdominal discomfort, incidence of TEAE ([9]; 250 mg BID, N=6): 0 n (%)
- Back pain, incidence of TEAE ([9]; 250 mg BID, N=6): 0 n (%)
- Dysmenorrhoea, incidence of TEAE ([9]; 250 mg BID, N=6): 2 (33.3%) n (%)
- Headache, incidence of TEAE ([9]; 250 mg BID, N=6): 2 (33.3%) n (%)
- Nausea, incidence of TEAE ([9]; 250 mg BID, N=6): 2 (33.3%) n (%)
- Peripheral swelling, incidence of TEAE ([9]; 250 mg BID, N=6): 1 (16.7%) n (%)
- Presyncope, incidence of TEAE ([9]; 250 mg BID, N=6): 1 (16.7%) n (%)
- Abdominal Distension, incidence of TEAE ([9]; 500 mg BID, N=6): 0 n (%)
- Abdominal discomfort, incidence of TEAE ([9]; 500 mg BID, N=6): 0 n (%)
- Back pain, incidence of TEAE ([9]; 500 mg BID, N=6): 2 (33.3%) n (%)
- Dysmenorrhoea, incidence of TEAE ([9]; 500 mg BID, N=6): 0 n (%)
- Headache, incidence of TEAE ([9]; 500 mg BID, N=6): 2 (33.3%) n (%)
- Nausea, incidence of TEAE ([9]; 500 mg BID, N=6): 1 (16.7%) n (%)
- Peripheral swelling, incidence of TEAE ([9]; 500 mg BID, N=6): 0 n (%)
- Presyncope, incidence of TEAE ([9]; 500 mg BID, N=6): 0 n (%)
- Abdominal Distension, incidence of TEAE ([9]; 750 mg BID, N=6): 0 n (%)
- Abdominal discomfort, incidence of TEAE ([9]; 750 mg BID, N=6): 2 (33.3%) n (%)
- Back pain, incidence of TEAE ([9]; 750 mg BID, N=6): 0 n (%)
- Dysmenorrhoea, incidence of TEAE ([9]; 750 mg BID, N=6): 0 n (%)
- Headache, incidence of TEAE ([9]; 750 mg BID, N=6): 2 (33.3%) n (%)
- Nausea, incidence of TEAE ([9]; 750 mg BID, N=6): 1 (16.7%) n (%)
- Peripheral swelling, incidence of TEAE ([9]; 750 mg BID, N=6): 0 n (%)
- Presyncope, incidence of TEAE ([9]; 750 mg BID, N=6): 0 n (%)
- Abdominal Distension, incidence of TEAE ([9]; 1000 mg BID, N=6): 1 (16.7%) n (%)
- Abdominal discomfort, incidence of TEAE ([9]; 1000 mg BID, N=6): 0 n (%)
- Back pain, incidence of TEAE ([9]; 1000 mg BID, N=6): 0 n (%)
- Dysmenorrhoea, incidence of TEAE ([9]; 1000 mg BID, N=6): 0 n (%)
- Headache, incidence of TEAE ([9]; 1000 mg BID, N=6): 2 (33.3%) n (%)
- Nausea, incidence of TEAE ([9]; 1000 mg BID, N=6): 0 n (%)
- Peripheral swelling, incidence of TEAE ([9]; 1000 mg BID, N=6): 1 (16.7%) n (%)
- Presyncope, incidence of TEAE ([9]; 1000 mg BID, N=6): 1 (16.7%) n (%)
- participants with TEAEs considered at least possibly treatment-related ([9]; 15 of 30 participants treated with LYT-100): 50.0%
- dose-limiting toxicities ([9]; 100 to 1000 mg BID, 5 days): No dose-limiting toxicities were observed
- maximum tolerated dose ([9]; 100 to 1000 mg BID, 5 days): No maximum tolerated dose was reached; also recorded: no maximally tolerated dose was reached
- severity of adverse events at all doses ([9]; MAD study): mild and transient
- Abdominal Distension, incidence of TEAE ([9]; Overall LYT-100, N=30): 4 (13.3%) n (%)
- Abdominal discomfort, incidence of TEAE ([9]; Overall LYT-100, N=30): 2 (6.7%) n (%)
- Back pain, incidence of TEAE ([9]; Overall LYT-100, N=30): 3 (10.0%) n (%)
- Dysmenorrhoea, incidence of TEAE ([9]; Overall LYT-100, N=30): 2 (6.7%) n (%)
- Headache, incidence of TEAE ([9]; Overall LYT-100, N=30): 9 (30.0%) n (%)
- Nausea, incidence of TEAE ([9]; Overall LYT-100, N=30): 4 (13.3%) n (%)
- Peripheral swelling, incidence of TEAE ([9]; Overall LYT-100, N=30): 2 (6.7%) n (%)
- Presyncope, incidence of TEAE ([9]; Overall LYT-100, N=30): 2 (6.7%) n (%)
- survival of L929 cells (L929 cells [10]): does not affect survival
- dose dependence of AUC96-108 [1]: linear dose proportionality
- AUC, % Change Fed vs Fasted ([3]; LYT-100 @500 mg single dose): -19%
- Cmax, % Change Fed vs Fasted ([3]; LYT-100 @500 mg single dose): -23%
- Tmax, % Change Fed vs Fasted ([3]; LYT-100 @500 mg single dose): +25%
- tolerability with or without food ([3]; single dose of 500 mg): no evidence of any tolerability concerns
- collagen synthesis in the absence of added TGF-β (L929 cells [11]): significantly inhibits
- TGF-induced collagen synthesis (L929 cells [11]; TGF-β 5 ng/ml, 72 hrs): inhibits
- soluble collagen levels in the absence of TGF-β-induction (L929 cells [12]): signficantly reduced
- TGF-β-induced soluble collagen levels (L929 cells [12]; TGF-β 5 ng/ml, 72 hrs): significantly inhibits
